Laboratory results as given in publication PMC10244669, “Virtual screening–based discovery of AI-2 quorum sensing inhibitors that interact with an allosteric hydrophobic site of LsrK and their functional evaluation” (Frontiers in Chemistry, 2023).
Entries after “also recorded” stand apart in the source; their conditions may differ. Read-outs that look alike come from different tables or passages of the source.

Experiments:
[1] = system: AI-2-mediated QS (lsr promoter luminescence, reporter strain WHQ02); experiment: Cell-based AI-2-mediated QS interference assay; design: species or system E. coli; conditions: for AI-2 QS inhibitory activity (in words) / maximum AI-2 QS inhibition: 100 to 3.13 μM; for IC50: Escherichia coli, cell-based QS interference assay, WHQ02, mean ± SD, n = 3
Description: All chemicals were purchased from Sigma-Aldrich (St. Louis, MO, United States) unless otherwise stated. DPD was purchased from the […] ZZBIO Co., LTD. (Shanghai, China). The Kinase-Glo Max Luminescent Kinase Assay Kit was purchased from Promega (Madison, WI, United States). NTA sensor chips were purchased from GE Healthcare (Chicago, IL, United States). All compounds used as potential inhibitors of LsrK were purchased from Topscience Biotechnology Co. Ltd. (Shanghai, China). The QS reporter strain WHQ02 (E. coli BL21 ΔTolC pWHQ01) was donated by Huiqi Wen (Institute of Microbiology and Epidemiology, Academy of Military Sciences, Beijing, China). The plasmid pWHQ01 was constructed by cloning the lsr promoter and the luxCDABE luminescent gene. BamHI and XhoI were purchased from New England Biolabs (Ipswich, MA, United States). pET-28a was purchased from Novagen (Madison, WI, United States). Escherichia coli BL21 (DE3) cells were purchased from TransGen Biotech Co., LTD. (Beijing, China). A Ni-NTA column was purchased from Sangon Biotech (Shanghai, China). Sodium dodecyl sulfate-polyacrylamide gel electrophoresis (SDS-PAGE) and the Bradford Protein Assay Kit were purchased from Thermo Fisher Scientific (Waltham, MA, United States).
(§1) WHQ02 cultured overnight were diluted 1:100 in fresh LB supplemented with 100 μg/mL ampicillin and grown at 30°C and until the logarithmic phase (OD600 = 0.4–0.6). The bacterial culture was centrifuged at 4,000 × g for 5 min, and the pellet was resuspended in fresh LB medium to prepare a suspension of 2 McFarland standard and added to the 96-well plate. In the experimental group, 74 compounds (final concentrations ranging from 100 to 3.125 μM) were added to reach a total volume of 100 µL. In addition, 100 µL LB medium with an equal volume of DMSO (negative control) or 100 µL LB supplemented with 2% glucose and the same volume of DMSO (positive control) were added. Bacteria was cultured at 37°C with shaking for 3 h. The […] of WHQ02 is directly regulated by the lsr promoter, reflecting the strength of QS. The luminescence and OD600 were measured using an Enspire 2300 microplate reader (Perkin Elmer). To further study the effect of compounds on bacterial growth, overnight cultured WHQ02 was diluted 1:1,000 with LB medium and added to 96 well plate. Then, the compounds were added to a 96-well plate (final concentration: 100 µM) and diluted in a gradient. The same volume of DMSO was added to the control group. The plates were incubated at 37°C for 18 h. OD600 values were recorded using an Enspire 2300 microplate reader. The experiment was performed in triplicate.

LsrK [2] = target: T1, LsrK (Salmonella typhimurium, UniProt Q8ZKQ6); experiment: LsrK inhibition assay (Kinase-Glo luminescence); type: biochemical; conditions: for IC50 / inhibition at 200 µM: mean ± SD, n = 3; for inhibition at 200 µM: Table 1, hits at 200 μM with 100 μM ATP; for type of LsrK inhibition: from IC50 values at 50, 100 and 150 μM ATP
T1 sequence (Q8ZKQ6 whole entry): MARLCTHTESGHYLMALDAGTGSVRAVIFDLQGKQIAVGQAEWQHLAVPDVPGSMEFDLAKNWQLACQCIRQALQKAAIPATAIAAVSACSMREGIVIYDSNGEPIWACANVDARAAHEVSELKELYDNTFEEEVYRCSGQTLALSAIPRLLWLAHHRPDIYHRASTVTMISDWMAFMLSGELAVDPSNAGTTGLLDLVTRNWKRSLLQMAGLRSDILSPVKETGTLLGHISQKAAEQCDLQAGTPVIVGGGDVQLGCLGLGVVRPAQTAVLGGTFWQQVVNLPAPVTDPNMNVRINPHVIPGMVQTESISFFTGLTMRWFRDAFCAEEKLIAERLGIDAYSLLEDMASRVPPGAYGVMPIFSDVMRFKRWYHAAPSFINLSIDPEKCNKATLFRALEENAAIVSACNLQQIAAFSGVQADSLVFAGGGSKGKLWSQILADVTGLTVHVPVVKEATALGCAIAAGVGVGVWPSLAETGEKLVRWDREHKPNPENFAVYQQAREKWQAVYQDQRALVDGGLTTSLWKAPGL
Description: (§2) To express LsrK with a 6 × His-tag at the C-terminus, the LsrK encoding gene of Salmonella typhimurium was amplified using primers carrying restriction endonuclease sites BamHI and XhoI. The amplified product was cloned into the expression vector pET-28a with a C-terminal 6 × His-tag and transfected into E. coli BL21 (DE3).
This assay was performed as previously described ([Gatta et al., 2019]), and the conditions were optimized. […] 74 purchased compounds were dissolved in dimethyl sulfoxide (20% v/v DMSO in reaction buffer) at a concentration of 2 mM. Briefly, 10 μL DPD, 10 μL LsrK, and 5 μL compound were added to a 96-well plate, and 25 μL ATP or 25 μL reaction buffer was added after 30 min incubation. The plate was incubated for 10 min at 37°C, then 50 μL of kit reagent was added, and the plate was incubated at 37°C for 15 min. The luminescence signal was measured using an Enspire 2300 microplate reader (PerkinElmer). Dose-response tests were carried out to verify the activity of hits chosen by primary screening. (200 μM–6.25 µM) ([Medarametla et al., 2018]). The inhibition percentage of each tested compound was determined as previously described and IC50 was calculated using four logistic parameters.

[3] = system: WHQ02 (E. coli BL21 ΔTolC pWHQ01); experiment: Growth inhibition of the reporter strain (OD600); type: cell-based; conditions: 100 to 3.13 μM
Description: as §1
The 12 hits showing >60% LsrK inhibition were tested for QS inhibition using cell-based AI-2-mediated QS interference assay, as previously described [Baba et al., 2006]). To ensure that lower luminescence was the result of QS inhibition not the chemical toxicity or antibacterial activity, strain growth inhibition was assessed concurrently. […] Therefore, a parallel experiment to test the MIC of compounds at a low bacterial density was conducted, indirectly reflecting the potential growth inhibition to avoid false positives.

LsrK [4] = target: T1, LsrK; experiment: SPR assay; type: binding; conditions: for Kd: His-tagged LsrK on NTA chip, 50 to 1.56 µM, affinity binding model; for LsrK specific binding (in words): SPR
Description: as §2
His-tagged LsrK was immobilized in the NTA sensor chip (GE Healthcare) in Biacore 8 K using a running buffer consisting of 1 × PBS-T and 5% v/v DMSO. Serially diluted small molecules (concentration range: 50 to 1.56 µM) were injected. Intermediate concentration (12.5 µM) was set as a repeat, and 1 × PBS-T with 5% v/v DMSO was set as the control. The association time was set to 120 s; the dissociation time was set to 130 s; and the flow rate was set to 30 μL/min. The resulting data were fitted to the affinity binding model using Biacore Evaluation Software (GE Healthcare).

Row | Structure (SMILES) | AI-2 QS inhibitory activity (in words) [1] | IC50 [1] | IC50 (LsrK [2]; 100 μM ATP, read-out: IC50B) | inhibition at 200 µM (LsrK [2]) | maximum AI-2 QS inhibition [1] | IC50 (LsrK [2]; 50 μM ATP, read-out: IC50A) | IC50 (LsrK [2]; 150 μM ATP, read-out: IC50C) | type of LsrK inhibition (LsrK [2]) | maximum growth inhibition [3] | Kd (LsrK [4]) | LsrK specific binding (in words) (LsrK [4])
1 | COC(=O)CSC1=NC(=O)C[C@H](c2ccc(Cl)cc2)[C@H]1C#N [2188–1861] | significant QS inhibitory activities | 38.4 ± 3.35 µM | 129 ± 6.85 µM | 92.1 ± 6.68% |  |  |  |  |  |  | 
2 | CCOc1ccc(/C=N\NC(=S)Nc2cccc(C(=O)O)c2)cc1O [3284–0335] |  | > 100 µM | 84.9 ± 7.73 µM | 67.6 ± 4.88% |  |  |  |  |  |  | 
3 | C/C(=N/NC(=S)Nc1cccc(C(=O)O)c1)c1ccc(C)cc1 [3284–1358] | significant QS inhibitory activities | 37.8 ± 3.18 µM | 41.8 ± 2.57 µM | 101 ± 3.82% | > 80% | 29.9 ± 1.95 µM | 88.1 ± 3.89 µM | ATP-competitive inhibitors | < 40% |  | 
4 | O=C1NC(=S)S/C1=C\c1c[nH]c2ccc(OCc3ccccc3)cc12 [3681–1274] | significant QS inhibitory activities | 42.2 ± 2.15 µM | 133 ± 8.85 µM | 66.2 ± 3.54% |  |  |  |  |  |  | 
5 | O=C(O)C[C@H]1S/C(=N\N=C2\C(=O)Nc3ccccc32)N(c2ccc(O)cc2)C1=O [4515–0182] |  | > 100 µM | 52.1 ± 2.68 µM | 83.7 ± 9.63% |  |  |  |  |  |  | 
6 | Cc1[nH]c(C(=O)N/N=C\c2ccc(O)c(O)c2)c(C)c1C(=O)N/N=C\c1ccc(O)c(O)c1 [5617–0915] |  | > 100 µM | 79.4 ± 4.55 µM | 71.5 ± 4.33% |  |  |  |  |  |  | 
7 | O=C(O)CCc1ccc(-c2ccccc2)n1CC(=O)Nc1ccccc1C(F)(F)F [D135-0149] | significant QS inhibitory activities | 22.1 ± 1.66 µM | 33.5 ± 2.52 µM | 83.9 ± 6.33% | > 80% | 21.8 ± 1.48 µM | 80.1 ± 4.83 µM | ATP-competitive inhibitors | < 40% |  | 
8 | Cc1c(O)cc(O)c2c(=O)c(O)c(-c3ccc(O)c(O)c3)oc12 [N025-0038] | significant QS inhibitory activities; also recorded: exhibited AI-2 QS inhibition at sub-minimum inhibitory concentrations; also recorded: exhibited QS inhibition at sub-MIC concentrations | 12.5 ± 0.99 µM | 43.7 ± 4.31 µM | 80.5 ± 2.31% |  | 26.6 ± 1.22 µM | 68 ± 1.27 µM | ATP-competitive inhibitors |  | 30.3 µM | specifically bound to LsrK; also recorded: exhibited LsrK specific binding
9 | Cc1c(CC(=O)O)c(=O)oc2cc(OCc3ccc(C(=O)O)o3)ccc12 [Y040-9027] |  | > 100 µM | 90 ± 5.18 µM | 94.1 ± 6.72% |  |  |  |  |  |  | 
10 | O=C(O)[C@@H]1[C@@H](C(=O)Nc2cc(C(F)(F)F)ccc2Cl)[C@H]2C=C[C@@H]1O2 [Y204-6349] |  | > 100 µM | 75.1 ± 1.19 µM | 87.4 ± 2.6% |  |  |  |  |  |  | 
11 | NC(=O)c1cc(Cc2ccccc2)sc1NC(=O)C1C2CCC(C2)C1C(=O)O (stereo not shown) [Y205-6768] | significant QS inhibitory activities | 11.3 ± 0.7 µM | 16.8 ± 0.76 µM | 101 ± 8.39% | > 80% | 8.73 ± 0.5 µM | 26 ± 1.32 µM | ATP-competitive inhibitors | < 40% | 8.49 µM | specifically bound to LsrK; also recorded: exhibited LsrK specific binding
